Source: PubChem BioAssay (NCI)
Values joined by “and” are separate entries in the source; they are usually repeats but may differ in a detail not shown here. Identical values can stand only once.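 Briefly, cells in 96-well plates were exposed to five compound concentrations for 48 h, and endpoints were estimated by linear interpolation. At the GI50, growth is halved. The concentration for full growth arrest is given as TGI.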

What was measured:
Experiment in all cases: growth of human tumour cells (NCI), 48 h
[1] = system: SN12C renal
[2] = system: OVCAR-5 ovarian
[3] = system: SK-MEL-2 melanoma
[4] = system: SK-MEL-28 melanoma
[5] = system: SNB-19 CNS
[6] = system: SF-268 CNS
[7] = system: HOP-92 NSCLC
[8] = system: UACC-62 melanoma
[9] = system: RXF 393 renal
[10] = system: T-47D breast

SMILES	TGI [1] [µM]	TGI [2] [µM]	TGI [3] [µM]	TGI [4] [µM]	TGI [5] [µM]	TGI [6] [µM]	TGI [7]	TGI [8] [µM]	TGI [9] [µM]	GI50 [1] [µM]	GI50 [2] [µM]	GI50 [3] [µM]	GI50 [4] [µM]	GI50 [5] [µM]	GI50 [6] [µM]	GI50 [7]	GI50 [8] [µM]	GI50 [9] [µM]	GI50 [10] [µM]	TGI [10] [µM]
O=C(N/C(=C\c1c(O)ccc2ccccc12)c1nc2ccccc2[nH]1)c1ccccc1	> 100	> 100	> 100	> 100	> 100	> 100	> 100 µM	> 100	47.7	–	–	–	–	–	–	–	–	–	–	–
O=c1cc(-c2ccccc2)oc2ccc(OC/C(=N/O)c3ccc(F)cc3)cc12	14.5	> 50	> 50	16.2	> 50	14.3	41.5 µM	22.8	26.1	6.59	16.4	12.3	3.33	5.1	3.62	11.4 µM	5.5	9.99	–	–
CCCCCCCCCCCC[N+](C)(C)Cc1ccccc1	5.12	13.5	3.6	4.34	7.12	4.45	–	–	–	2.11	2.86	1.97	2.06	2.11	2.02	–	–	–	2.68	15.5
O=C(Nc1cc(Cl)ccc1Cl)c1cc2cccc(Br)c2oc1=O	> 100	–	> 100	> 100	> 100	–	–	> 100	> 100	–	–	–	–	–	–	–	–	–	–	–
O=c1nc(NC(c2ccccc2)(c2ccccc2)c2ccccc2)ccn1CCCl	33	82.4	29.9	28.6	28.9	34.1	27.6 µM	–	30.8	–	–	–	–	–	–	–	–	–	–	–
CSC(=Nc1ccccc1Cl)NC(=O)c1ccc(Br)cc1	> 100	> 100	> 100	66.3	> 100	> 100	–	> 100	> 100	–	–	–	–	–	–	–	–	–	–	–
COc1cc(O)c(C(=O)CC(C)=O)c(OC)c1	> 100	> 100	> 100	> 100	> 100	> 100	–	> 100	> 100	–	–	–	–	–	–	–	–	–	–	–
CCCN(CCC)CCc1cc(C(C)=O)n(S(=O)(=O)c2ccc(C)cc2)c1	> 100	> 100	> 100	> 100	> 100	> 100	> 100 µM	> 100	–	–	–	–	–	–	–	–	–	–	–	–
CCN(CCCl)CCCCCNc1c2ccccc2nc2ccc(OC)cc12	1.78	5.39	2.7	12.1	3.78	5.98	3.21 µM	1.8	2.4	–	–	–	–	–	–	–	–	–	–	–
C/C(=N\NC(=O)CC#N)C(CN1CCCCC1)C(c1ccccc1)c1c(O)c2ccccc2oc1=O (stereo not given)	–	> 100	> 100	> 100	> 100	> 100	95.7 µM	> 100	–	–	–	–	–	–	–	–	–	–	–	–
Cc1cc2c(c3nocc13)C(=O)c1ccccc1C2=O	> 100	> 100	> 100	> 100	> 100	> 100	> 100 µM	> 100	> 100	–	–	–	–	–	–	–	–	–	–	–
CCN1C(=O)N(CC)C2C1NN=c1s/c(=C\c3cccs3)c(=O)n12 (stereo not given)	> 100	> 100	> 100	> 100	> 100	> 100	> 100 µM	> 100	> 100	0.555	0.445	1.41	–	0.506	1.67	> 25.8 µM	–	0.141	–	–
CN(C)CCNC(=O)c1cccc2nc3ccc4cccnc4c3nc12	4.31	2.67	2.11	2.28	6.75	3.13	1.99 µM	1.54	1.3	–	–	–	–	–	–	–	–	–	–	–
O=C1NC(=O)C(=Cc2c3ccccc3cc3ccccc23)C(=O)N1	> 100	–	–	> 100	> 100	> 100	> 100 µM	> 100	> 100	–	–	–	–	–	–	–	–	–	–	–
CC(C)=O.O=C([O-])C(F)(F)F.O=C([O-])C(F)(F)F.O=C([O-])C(F)(F)F.O=C([O-])C(F)(F)F.[Rh+2].[Rh+2]	> 100	> 100	–	> 100	> 100	> 100	–	> 100	> 100	> 100	> 100	–	94.3	60.4	> 100	–	> 100	> 100	–	–
CCC#CC[C@H](O)C/C=C1/C(=O)C=C[C@@H]1C/C=C\CCCC(=O)OC	8.12	7.88	2.76	3.25	10.3	9.22	5.81 µM	2.82	1.64	1.77	1.81	0.995	1.12	3.29	2.05	1.52 µM	1.04	0.865	–	–

SMILES	TGI [1] [µM]	TGI [2] [µM]	TGI [3] [µM]	TGI [4] [µM]	TGI [5] [µM]	TGI [6] [µM]	TGI [7]	TGI [8] [µM]	TGI [9] [µM]	GI50 [1] [µM]	GI50 [2] [µM]	GI50 [3] [µM]	GI50 [4] [µM]	GI50 [5] [µM]	GI50 [6] [µM]	GI50 [7]	GI50 [8] [µM]	GI50 [9] [µM]	GI50 [10] [µM]	TGI [10] [µM]
CC(C)(CN1CCOCC1)C(=O)/C=C/c1ccc(/C=C/C(=O)C(C)(C)CN2CCOCC2)cc1	3.57	3.26	–	–	–	–	6.49 µM	2.98	3.45	–	–	–	–	–	–	–	–	–	–	–
COc1ccc2c3c(c(C(=O)O)oc13)CCC2	> 100	> 100	> 100	> 100	> 100	> 100	> 100 µM	> 100	> 100	–	–	–	–	–	–	–	–	–	–	–
S=c1nc(C(c2ccccc2)c2ccccc2)[nH][nH]1	> 100	> 100	> 100	> 100	> 100	> 100	–	> 100	> 100	–	–	–	–	–	–	–	–	–	–	–
Cc1cc(C)nc(NS(=O)(=O)c2ccc(Nc3c4ccccc4nc4c(C(=O)Nc5ccc(S(=O)(=O)Nc6cc(C)on6)cc5)ccc(Cl)c34)cc2)n1	63	44.6	–	69.4	48.9	> 100	–	80.1	32.7	–	–	–	–	–	–	–	–	–	–	–
CC(N)Cc1ccc(Cl)cc1 (stereo not given)	> 100	> 100	> 100	> 100	> 100	> 100	> 100 µM	> 100	> 100	–	–	–	–	–	–	–	–	–	–	–
Cc1cc(Br)cc(C)c1NC(=O)C(=O)C(C(=O)c1ccncc1)C1OC(=O)c2ccccc21 (stereo not given)	> 100	> 100	–	–	> 100	> 100	> 100 µM	> 100	> 100	–	–	–	–	–	–	–	–	–	–	–
CC(=O)O[C@@]12CO[C@@H]1C[C@H](O)[C@@]1(C)C(=O)[C@H](O)C3=C(C)[C@@H](OC(=O)[C@H](O)[C@@H](NC(=O)OC(C)(C)C)c4ccccc4)C[C@@](O)([C@@H](OC(=O)c4ccccc4)C12)C3(C)C (stereo not given in full)	50	89.2	> 100	50.7	> 100	81.5	17.1 µM and 8.9 µM	33.7	–	< 0.005	–	0.0355	12.7	0.031	–	< 0.005 µM and 0.0181 µM	0.0922	–	–	–
COc1cc2c(c(O)c1C)C(=O)CC(c1ccccc1)O2 (stereo not given)	> 100	> 100	95.4	> 100	–	> 100	40.8 µM	> 100	–	–	–	–	–	–	–	–	–	–	–	–
CCC[CH2][Sn]([CH2]CCC)([CH2]CCC)[O]C(=O)C(OC(C)=O)c1ccccc1 (stereo not given)	0.275	0.222	–	0.274	0.322	0.368	0.222 µM	0.255	0.302	0.144	0.086	–	0.142	0.176	0.138	0.0409 µM	0.126	0.155	–	–
COc1cccc2c1C(=O)c1c(O)c3c(c(O)c1C2=O)C[C@@](O)(C(C)=O)C[C@@H]3OC1CC([N+]([O-])(Cc2ccccc2)Cc2ccccc2)C(O)C(C)O1 (stereo not given in full)	2.34	3.22	3.46	–	15.8	–	3.14 µM	2.83	2.57	–	–	–	–	–	–	–	–	–	–	–
O=C(O)C(Br)C(Br)C(=O)O (stereo not given)	> 100	> 100	> 100	> 100	> 100	> 100	> 100 µM	> 100	> 100	–	–	–	–	–	–	–	–	–	–	–
NCCOCn1cc(Cc2cccc(OCc3ccccc3)c2)c(=O)[nH]c1=O	> 100	–	> 100	> 100	> 100	–	> 100 µM	> 100	–	–	–	–	–	–	–	–	–	–	–	–
O=C1OC(c2ccccc2)(c2ccccc2)c2ccc3ccc(F)cc3c21	> 100	> 100	> 100	> 100	> 100	> 100	> 100 µM	> 100	> 100	–	–	–	–	–	–	–	–	–	–	–
O=C1C=CC(=O)C2C1Cc1ccccc1C2c1ccccc1 (stereo not given)	> 100	> 100	90.1	> 100	> 100	> 100	85 µM	> 100	–	–	–	–	–	–	–	–	–	–	–	–
O=S(=O)(c1ccccc1)c1nccs1	> 100	> 100	> 100	> 100	> 100	> 100	–	> 100	–	–	–	–	–	–	–	–	–	–	–	–
O=C1NC(O)c2ccccc2O1 (stereo not given)	> 100	> 100	> 100	> 100	> 100	> 100	> 100 µM	> 100	> 100	–	–	–	–	–	–	–	–	–	–	–
